Assays:
[1] = test system: Human primary dermal fibroblasts; assay: Inhibition of cell spreading in a fibroblast model; assay type: cell-based; set-up: key: “+++” vs. “++” vs. “+” in general denotes ˜4-fold differences in potency; “+++” vs. “++” vs. “+” in general denotes ˜4-fold differences in potency; “+++” vs. “++” vs. “+” in general denotes ˜4-fold differences in potency; “−” denotes no activity at any dose tested, up to 1000× the effective dose of halofuginone; conditions: spreading of cells assessed by light microscopy 28 hours after treatment
Experimental: The ability of halofuginone and analogs thereof to inhibit the spreading of freshly plated primary dermal fibroblasts was examined. Human primary dermal fibroblasts were replated and halofuginone added immediately after replating; spreading of cells was assessed by light microscopy 28 hours after treatment with compound. “+++” vs. “++” vs. “+” in general denotes ˜4-fold differences in potency. “−” denotes no activity at any dose tested, up to 1000× the effective dose of halofuginone.

[2] = test system: Differentiation of primary naïve T-cells into Th17 cells; assay: Inhibition of Th17 differentiation of primary naïve T-cells by halofuginone analogs; assay type: cell-based, murine; set-up: key: “+++” vs. “++” vs. “+” in general denotes ˜4-fold differences in potency; “+++” vs. “++” vs. “+” in general denotes ˜4-fold differences in potency; “+++” vs. “++” vs. “+” in general denotes ˜4-fold differences in potency; “−” denotes no activity at any dose tested, up to 1000× the effective dose of halofuginone; conditions: T-cell receptor stimulation+IL-6+TGFb
Experimental: Naïve T-cells were stimulated to differentiate in the presence or absence of 10 nM halofuginone, with 1 mM of the indicated amino acids added to the medium, and stained for Th17 differentiation on day 4. Naïve murine T cells were activated in the presence or absence of TGFβ plus IL-6 as indicated, expanded in for 4 days and restimulated with PMA and ionomycin for intracellular cytokine staining. […] Bars indicate percentage of cells differentiation as Th17 as indicated by IL17 expression.
The effect of different halofuginone and analogs thereof on differentiation of naïve T-cells was assayed as described in legend for FIG. 4 above. Differentiation of primary naïve T-cells into Th17 cells following T-cell receptor stimulation+IL-6+TGFb. “+++” vs. “++” vs. “+” in general denotes ˜4-fold differences in potency. “−” denotes no activity at any dose tested, up to 1000× the effective dose of halofuginone.

[3] = test system: SV-MES mesangial cells (GCN2 Thr898, eIF2alpha Ser51 phosphorylation); assay: AAR activation in cultured fibroblastic cells, western blot; assay type: cell-based; conditions: 20 nM; 2 hours
Source text: Duplicate cell samples are shown. […] Activated GCN2 phosphorylates eif2alpha at Ser 51, therefore this is an expected downstream outcome of AAR activation.

adjuvant-driven EAE = assay: Adjuvant-driven experimental autoimmune encephalomyelitis (EAE), MOG33-55 immunization; assay type: in vivo, mice
Source text: The ability of systemic HF treatment to block IL-17 expression and associated autoimmune inflammation in vivo was examined using two distinct models of experimental autoimmune encephalomyelitis (EAE). […] The second model, a passive model of EAE induction, is initiated by the transfer of myelin proteolipid protein (PLP)-reactive T cells into lymphopenic hosts.
Adjuvant-driven EAE was induced in 8 week-old wild-type B6 mice purchased from Charles River laboratories (Kingston, N.Y.) by subcutaneous injection of […] peptide emulsified in Incomplete Freund's Adjuvant (IFA) plus 5 mg/ml heat-killed M. tuburculosis (BD Biosciences) in both dorsal flanks as described in Veldhoen et al. (Nat. Immunol. 7(11):1151-1156, 2006).
Mice were injected daily with HF (2 μg/mouse) or vehicle control (DMSO) i.p. Clinical signs of EAE were assessed according to the following score: 0, no signs of disease; 1, flaccid tail; 2, weak gait/hind limb paresis; 3, hind limb paralysis; 4, tetraplegia; 5, moribund. Cytokine production during EAE was determined either in peripheral T cells isolated from spleen or lymph nodes of mice prior to disease onset (day 6-10) or in mononuclear cells isolated from the brain and spinal cords of mice with severe disease (clinical score ≧2) between days 15-20. Briefly, splenocytes were stained for intracellular cytokines following erythrocyte lysis with ammonium chloride buffer. T cells were isolated from brain and spinal cords of mice with active EAE following perfusion with cold PBS. Minced CNS tissue was digested with liberase C1 (0.33 mg/ml, Roche Diagnostics) or collagenase D (10 mg/ml, Roche Diagnostics) at 37° C. for 30-45 minutes. Cell suspensions were passed through 70 μm cell strainers (VWR) and fractionated by 70%/30% Percoll gradient centrifugation. Mononuclear cells were collected from the interphase, washed, and used for intracellular cytokine analysis.

[4] = test system: CD4+ CD25− T cells (Th1, Th2, iTreg differentiation, proliferation, CD25), CD8+ T cells, B cells; conditions: cited from earlier work
[5] = test system: TGFβ-induced Smad phosphorylation and lymphocyte responses to TGFβ; conditions: cited from earlier work
dermal ECM deposition = conditions: introduced intraperitoneally, added to food, or applied locally; cited from earlier work

SMILES: O=C(CC1NCCCC1O)Cn1cnc2cc(Br)c(Cl)cc2c1=O (stereo not shown) [Compound 1, 7-bromo-6-chloro-3-[3-(3-hydroxy-2-piperidinyl)-2-oxopropyl]-4(3H)-quinazolinone]
- Fibroblast inhibition [1]: +++
- Inhibition of Th17 differentiation [2]: +++
- AAR activation (GCN2 Thr898 and eIF2alpha Ser51 phosphorylation) [3]: activates the AAR
- IL-17 and IFNγ expression in T cells of lymph nodes and CNS (adjuvant-driven EAE; 2 μg HF daily i.p.): impaired IL-17 production but did not affect IFNγ expression
- EAE disease severity and frequency of onset (adjuvant-driven EAE; 2 μg HF daily, ˜0.1 mg/kg, i.p.): significantly reduced both the severity of adjuvant-driven EAE disease and frequency of disease onset
- EAE, HF not introduced until day 10 following immunization (adjuvant-driven EAE; treatment from day 10): controls autoimmune inflammation even after inflammatory pathogenesis is evident
- EAE, HF injection terminated at day 10 following immunization (adjuvant-driven EAE; treatment until day 10): exerts a protective effect that extends well beyond the time of treatment
- concentrations that generally inhibit CD4+ T cell, CD8+ T cell, and B220+ B cell activation [4]: 20 to 40 nM
- concentrations attenuating TGFβ signaling [5]: > 50 nM
- dermal ECM deposition (dermal ECM deposition): reduces excess dermal ECM deposition
